{"source": "patent US10800816B2", "about": "(Baxalta GmbH, priority 2012, dated 2020)", "key": {"in vitro": {"assay": "in vitro", "settings": "human, plasma"}, "[1]": {"settings": "mouse, plasma, 24 h"}, "TFPI [2]": {"tested_on": "TFPI", "assay": "% Inhibition @ 2.5µM"}, "TFPI [3]": {"tested_on": "TFPI", "assay": "% Inhibition @ 0.63µM"}, "TFPI [4]": {"tested_on": "TFPI", "assay": "Extrinsic Tenase Inhibition assay | % Inhibition @ 2.5μM"}}, "note": "Where a SMILES comes first, the peptide text is derived from it. Bridges are numbered along the chain shown (N, C = ends). [ ]: non-standard residue; d: D form. The star is where a group is joined. Bta = N[C@@H](Cc1csc2ccccc12)C(=O)O; Tle = CC(C)(C)[C@H](N)C(=O)O; hCys = N[C@@H](CCS)C(=O)O; Hexanoyl = CCCCCC(=O)*; Aib = CC(C)(N)C(=O)O; Acm = CC(=O)NC*; Sar = CNCC(=O)O", "data": [{"molecule": "CC(=O)N[C@@H](Cc1ccccc1)C(=O)N[C@@H](CCC(N)=O)C(=O)N[C@@H](CO)C(=O)N[C@@H](CCCCN)C(=O)N(C)CC(=O)N[C@@H](CC(N)=O)C(=O)N[C@H](C(=O)N[C@@H](Cc1ccccc1)C(=O)N[C@H](C(=O)N[C@@H](CC(=O)O)C(=O)NCC(=O)N[C@@H](Cc1ccc(O)cc1)C(=O)N[C@@H](Cc1ccccc1)C(=O)N[C@@H](CCC(=O)O)C(=O)N[C@@H](CCCNC(=N)N)C(=O)N[C@@H](CC(C)C)C(=O)N[C@@H](CCCNC(=N)N)C(=O)N[C@@H](C)C(=O)N[C@@H](CCCCN)C(=O)N[C@@H](CC(C)C)C(N)=O)C(C)C)C(C)C", "note": "[JBT0717] (Ac-FQSK[Sar]NVFVDGYFERLRAKL-NH2)", "values": [{"measurement": "Plasma Stability (half life in minutes) human", "value": ">2", "unit": "h"}]}, {"molecule": "CC(=O)N[C@@H](Cc1ccccc1)C(=O)N[C@@H](CCC(N)=O)C(=O)N[C@@H](CO)C(=O)N[C@@H](CCCCN)C(=O)N(C)CC(=O)N[C@@H](CC(N)=O)C(=O)N[C@H](C(=O)N[C@@H](Cc1ccccc1)C(=O)N[C@H](C(=O)N[C@@H](CC(=O)O)C(=O)NCC(=O)N[C@@H](Cc1ccc(O)cc1)C(=O)N[C@@H](Cc1ccccc1)C(=O)N[C@@H](CCC(=O)O)C(=O)N[C@@H](CCCNC(=N)N)C(=O)N[C@@H](CC(C)C)C(=O)NC(C)(C)C(=O)N[C@@H](C)C(=O)N[C@@H](CCCCN)C(=O)N[C@@H](CC(C)C)C(N)=O)C(C)C)C(C)C", "note": "[JBT1584]", "values": [{"measurement": "Plasma Stability (half life in minutes) human", "value": ">2", "unit": "h"}]}, {"molecule": "CC(=O)N[C@@H](Cc1ccccc1)C(=O)N[C@@H](CCC(N)=O)C(=O)N[C@@H](CO)C(=O)N[C@@H](CCCCN)C(=O)N1CCC[C@@H]1C(=O)N[C@@H](CC(N)=O)C(=O)N[C@H](C(=O)N[C@@H](Cc1c[nH]cn1)C(=O)N[C@H](C(=O)N[C@@H](CC(=O)O)C(=O)N[C@H](C)C(=O)N[C@@H](Cc1ccc(O)cc1)C(=O)N[C@@H](Cc1ccccc1)C(=O)N[C@@H](CCC(=O)O)C(=O)N[C@@H](CCCNC(=N)N)C(=O)N[C@@H](CC(C)C)C(=O)NC(C)(C)C(=O)N[C@@H](C)C(=O)N[C@@H](CCCCN)C(=O)N[C@@H](CC(C)C)C(N)=O)C(C)C)C(C)C", "note": "[JBT2414] (Ac-FQSK[dP]NVHVD[dA]YFERL[Aib]AKL-NH2)", "values": [{"measurement": "remaining at 24 h", "setting": "in vitro", "value": 100, "unit": "%"}]}, {"molecule": "CC(=O)N[C@@H](Cc1ccccc1)C(=O)N[C@@H](CCC(N)=O)C(=O)N[C@@H](CO)C(=O)N[C@@H](CCCCN)C(=O)N1CCC[C@@H]1C(=O)N[C@@H](CC(N)=O)C(=O)N[C@H](C(=O)N[C@@H](Cc1c[nH]cn1)C(=O)N[C@H](C(=O)N1CCC[C@H]1C(=O)N[C@@H]1CSSCC[C@@H](C(=O)N[C@@H](CCCNC(=N)N)C(=O)N[C@@H](CC(C)C)C(=O)NC(C)(C)C(=O)N[C@@H](C)C(=O)N[C@@H](CCCCN)C(=O)N[C@@H](CC(C)C)C(N)=O)NC(=O)[C@H](Cc2csc3ccccc23)NC(=O)[C@H](Cc2ccc(O)cc2)NC1=O)C(C)C)C(C)C", "note": "[JBT00002518, Ac-FQSKpNVHVP[cY-Bta--Hcy-]RL-Aib-AKL-NH2] (Ac-FQSK[dP]NVHVP[dC]Y[Bta][hCys]RL[Aib]AKL-NH2; disulfide 11-14)", "values": [{"measurement": "24 h Human Plasma Stability | Mean Remaining [%]", "setting": "FIGURE 78X", "value": 77.70, "unit": "%"}, {"measurement": "24 h Mouse Plasma Stability | Mean Remaining [%]", "setting": "FIGURE 78X", "value": 28.30, "unit": "%"}]}, {"molecule": "CCCCCC(=O)N[C@@H](Cc1ccccc1)C(=O)N[C@@H](CCC(N)=O)C(=O)N[C@@H](CO)C(=O)N[C@@H](CCCCN)C(=O)N1CCC[C@@H]1C(=O)N[C@@H](CSCNC(C)=O)C(=O)N[C@H](C(=O)N[C@@H](Cc1cnc[nH]1)C(=O)N[C@H](C(=O)N[C@@H](CC(=O)O)C(=O)N[C@H](C)C(=O)N[C@@H](Cc1ccc(O)cc1)C(=O)N[C@@H](Cc1ccccc1)C(=O)N[C@@H](CCC(=O)O)C(=O)N[C@@H](CCCNC(=N)N)C(=O)N[C@@H](CC(C)C)C(=O)NC(C)(C)C(=O)N[C@@H](C)C(=O)N[C@@H](CCCCN)C(=O)N[C@@H](CC(C)C)C(N)=O)C(C)(C)C)C(C)C", "note": "[JBT2528, Hex-FQSKp-C(Acm)-VH-Tle-DaYFERL-Aib-AKL-NH2] (Hexanoyl-FQSK[dP]C(Acm)VH[Tle]D[dA]YFERL[Aib]AKL-NH2)", "values": [{"measurement": "percentage of initial amount of peptide remaining", "setting": "[1]", "value": 35, "unit": "%"}, {"measurement": "remaining at 24 h", "setting": "in vitro", "value": 93, "unit": "%"}]}, {"molecule": "(Ac-FQSKpNVHVDGYFERL-Aib-AKLC-NH2)2-M2TriO [JBT00002522]", "values": [{"measurement": "24 h Human Plasma Stability | Mean Remaining [%]", "setting": "FIGURE 78X", "value": 46.90, "unit": "%"}, {"measurement": "24 h Mouse Plasma Stability | Mean Remaining [%]", "setting": "FIGURE 78X", "value": 18.05, "unit": "%"}]}, {"molecule": "Ac-FQSK-Nmg-AVFVFGYFARLRAKL-NH2 (SEQ ID NO: 206) (Ac-FQSK[Sar]AVFVFGYFARLRAKL-NH2; SMILES CC(=O)N[C@@H](Cc1ccccc1)C(=O)N[C@@H](CCC(N)=O)C(=O)N[C@@H](CO)C(=O)N[C@@H](CCCCN)C(=O)N(C)CC(=O)N[C@@H](C)C(=O)N[C@H](C(=O)N[C@@H](Cc1ccccc1)C(=O)N[C@H](C(=O)N[C@@H](Cc1ccccc1)C(=O)NCC(=O)N[C@@H](Cc1ccc(O)cc1)C(=O)N[C@@H](Cc1ccccc1)C(=O)N[C@@H](C)C(=O)N[C@@H](CCCNC(=N)N)C(=O)N[C@@H](CC(C)C)C(=O)N[C@@H](CCCNC(=N)N)C(=O)N[C@@H](C)C(=O)N[C@@H](CCCCN)C(=O)N[C@@H](CC(C)C)C(N)=O)C(C)C)C(C)C) [JBT0681]", "values": [{"measurement": "% Inhibition @ […]", "setting": "TFPI [2]", "value": 52, "unit": "%"}, {"measurement": "% Inhibition @ […]", "setting": "TFPI [3]", "value": 52, "unit": "%"}]}, {"molecule": "Ac-KRYKWF[CGMRDMKGTMSC]VWVKF-NH2 (SEQ ID NO: 1016) (Ac-KRYKWFCGMRDMKGTMSCVWVKF-NH2; disulfide 7-18; SMILES CSCC[C@@H]1NC(=O)CNC(=O)[C@@H](NC(=O)[C@H](Cc2ccccc2)NC(=O)[C@H](Cc2c[nH]c3ccccc23)NC(=O)[C@H](CCCCN)NC(=O)[C@H](Cc2ccc(O)cc2)NC(=O)[C@H](CCCNC(=N)N)NC(=O)[C@H](CCCCN)NC(C)=O)CSSC[C@@H](C(=O)N[C@H](C(=O)N[C@@H](Cc2c[nH]c3ccccc23)C(=O)N[C@H](C(=O)N[C@@H](CCCCN)C(=O)N[C@@H](Cc2ccccc2)C(N)=O)C(C)C)C(C)C)NC(=O)[C@H](CO)NC(=O)[C@H](CCSC)NC(=O)[C@H]([C@@H](C)O)NC(=O)CNC(=O)[C@H](CCCCN)NC(=O)[C@H](CCSC)NC(=O)[C@H](CC(=O)O)NC(=O)[C@H](CCCNC(=N)N)NC1=O) [JBT1474]", "values": [{"measurement": "Extrinsic Tenase Inhibition assay | % Inhibition @ […]", "setting": "TFPI [4]", "value": 59, "unit": "%"}]}, {"molecule": "Ac-SFYKWF[CGMRDMKGTMSC]VWVKF-NH2 (SEQ ID NO:1010) [JBT1437]", "values": [{"measurement": "Extrinsic Tenase Inhibition assay | % Inhibition @ […]", "setting": "TFPI [4]", "value": 53, "unit": "%"}]}, {"molecule": "Ac-SRYKWF[CGMKDMKGTMSC]VWVKF-NH2 (SEQ ID NO: 1017) (Ac-SRYKWFCGMKDMKGTMSCVWVKF-NH2; disulfide 7-18; SMILES CSCC[C@@H]1NC(=O)CNC(=O)[C@@H](NC(=O)[C@H](Cc2ccccc2)NC(=O)[C@H](Cc2c[nH]c3ccccc23)NC(=O)[C@H](CCCCN)NC(=O)[C@H](Cc2ccc(O)cc2)NC(=O)[C@H](CCCNC(=N)N)NC(=O)[C@H](CO)NC(C)=O)CSSC[C@@H](C(=O)N[C@H](C(=O)N[C@@H](Cc2c[nH]c3ccccc23)C(=O)N[C@H](C(=O)N[C@@H](CCCCN)C(=O)N[C@@H](Cc2ccccc2)C(N)=O)C(C)C)C(C)C)NC(=O)[C@H](CO)NC(=O)[C@H](CCSC)NC(=O)[C@H]([C@@H](C)O)NC(=O)CNC(=O)[C@H](CCCCN)NC(=O)[C@H](CCSC)NC(=O)[C@H](CC(=O)O)NC(=O)[C@H](CCCCN)NC1=O) [JBT1481]", "values": [{"measurement": "Extrinsic Tenase Inhibition assay | % Inhibition @ […]", "setting": "TFPI [4]", "value": 55, "unit": "%"}]}, {"molecule": "Ac-SRYKWF[CGMRDMKGTLSC]VWVKF-NH2 (SEQ ID NO:1064) [JBT1506]", "values": [{"measurement": "Extrinsic Tenase Inhibition assay | % Inhibition @ […]", "setting": "TFPI [4]", "value": 45, "unit": "%"}]}]}
